Laboratory results as given in patent publication US20230076733A1, “Combination Therapy” (AGENCY FOR SCIENCE, TECHNOLOGY AND RESEARCH, priority 2020, published 2023).
“And” between values parts separate entries of the source, which are not always exact repeats. Identical values can stand only once.

Assays:
Type in all cases: cell-based
EGI-1 cells = test: soft agar colony formation assay, EGI-1 cells; details: for Colony count: duplicate wells
Description: (§1) The IC50 and EC50 values for each combination partner (a) and (b) with the specific cell lines are determined from the response plot. A dose-response assay for each combination partner and the combination at different concentrations based on the IC50 values of each combination partner was performed. Computed EC50-EC95 values were then generated by a software (as disclosed herein) based on the drug concentration and the respective colony growth numbers.
(§2) 6. Cell lines used and number of cells seeded per well
(§3) (1) Base Layer—0.6% Agar per 300 μL per well.
(§4) Microwave the agar for 1-2 min so that it is completely melted. Add 5.4 ml of the melted agar into 21.6 ml of pre-warmed media (All media and agar preparation is made in excess for 2.5 plates). Aliquot 300 μl of the suspension into each well, avoiding the first and last columns of the plates. Fill the first and last columns of wells with 500 μl of sterile water or phosphate buffered saline. Incubate the plates in 37° C. incubator for 45 min-1 hr to allow agar to solidify.
(§5) (2) Middle Layer— 0.3% Agar plus corresponding number of cells per well
(§6) Trypsinize the adherent cells and suspend them in 5 ml of media. Determine the number of cells in the suspension and calculate the volume of cell suspension required for seeding. Mix the agar and media together first, excluding the volume of cell suspension. Add the cell suspension last into the mixture. Mix well and aliquot 250 μl into each well containing the base layer. Incubate the plates in a 37° C. incubator for 1-1.5 hrs to allow the agar to solidify.
(§7) Prepare the required concentration of compounds based on the IC50 values of each drug.
(§8) (Pre-determine the IC50 values for each drug with the corresponding cell-line using a dose-response assay)
(§9) Row A& B: Aliquot 250 μl of diluted Drug A per well
(§10) Row C&D: Aliquot 250 μl of diluted Drug B per well
(§11) Row E& F: Aliquot 250 μl of diluted Drug A and B mixed at 1:1 ratio for each well
(§12) Assay Results Analysis Method • 1. Score the colonies after 2 to 3 weeks depending on the colony forming status for different cell line. • 2. Before scoring the colonies, add 35 μl MTT (5 mg/ml) to the wells with cells and incubate at 37° C. for 2-3 hrs depending on the intensity of colour development. • 3. Once the colonies are stained, count the total number of colonies formed using the Oxford Optronix GelCount® instrument. • 4. Average the total number of colonies obtained for each drug dose point and represent it as a fraction over the control. This represents the fraction of colony growth. […] Incorporate the fraction of inhibition and the corresponding dose values into the Chou Talalay Software available online (http://www.combosyn.com/) to obtain the combination index values. • 6. The combination index values will give an indication as to whether the combined drugs are synergistic, antagonistic or additive in the treated cells, as shown in Table 2 below.
FIG. 2 illustrates a dose-response assay plate containing EGI-1 cells (Test 1) after testing compounds at different concentrations based on the IC50 values of each compound. EGI-1 is a cell line established from cholangiocarcinoma (bile duct adenocarcinoma).

HPAF-II cells = test: soft agar colony formation assay, HPAF-II cells; details: HPAF-II, duplicate wells
Description: as §1, §2, §3, §4, §5, §6, §7, §8, §9, §10, §11, §12
FIG. 4 illustrates of a dose-response assay plate containing HPAF-II cells (Test 1) after testing compounds at different concentrations based on the IC50 values of each compound. HPAF-II is a cell line established from pancreatic ductal adenocarcinoma (pancreatic cancer).

MCAS cells = test: soft agar colony formation assay, MCAS cells; details: for Colony count: MCAS, duplicate wells
Description: as §1, §2, §3, §4, §5, §6, §7, §8, §9, §10, §11
as §12, with “6.” for “6. The combination index values will give an indication as to whether the combined drugs are synergistic, antagonistic or additive in the treated cells, as shown in Table 2 below.”
MCAS is a cell line established from ovarian mucinous cystadenocarcinoma (ovarian cancer).

TFK-1 cells = test: soft agar colony formation assay, TFK-1 cells; details: for Colony count: duplicate wells
Description: as §1, §2, §3, §4, §5, §6, §7, §8, §9, §10, §11, §12
FIG. 10 illustrates a dose-response assay plate containing TFK-1 cells (Test 1) after testing compounds at different concentrations based on the IC50 values of each compound. TFK-1 is a cell line established from cholangiocarcinoma (bile duct adenocarcinoma).

## O=C(c1cc(Cc2n[nH]c(=O)c3ccccc23)ccc1F)N1CCN(C(=O)C2CC2)CC1 [Olaparib, reference compound]
EGI-1 cells; EGI-1, Test 1, 0.25x IC50: dose Olaparib 2.16362, Ex 1 0.00687, combination both 1:1
  Colony count: 1658 and 1605
EGI-1 cells; EGI-1, Test 1, 0.5x IC50: dose Olaparib 4.32725, Ex 1 0.01375, combination both 1:1
  Colony count: 1362 and 1300
EGI-1 cells; EGI-1, Test 1, 1x IC50: dose Olaparib 8.6545, Ex 1 0.0275, combination both 1:1
  Colony count: 935 and 908
EGI-1 cells; EGI-1, Test 1, 2x IC50: dose Olaparib 17.309, Ex 1 0.055, combination both 1:1
  Colony count: 454 and 489
EGI-1 cells; EGI-1, Test 1, 4x IC50: dose Olaparib 34.618, Ex 1 0.11, combination both 1:1
  Colony count: 209 and 197
EGI-1 cells; EGI-1, Test 2, 0.25x IC50: dose Olaparib 2.16362, Ex 1 0.00687, combination both 1:1
  Colony count: 1591 and 1717
EGI-1 cells; EGI-1, Test 2, 0.5x IC50: dose Olaparib 4.32725, Ex 1 0.01375, combination both 1:1
  Colony count: 1403 and 1442
EGI-1 cells; EGI-1, Test 2, 1x IC50: dose Olaparib 8.6545, Ex 1 0.0275, combination both 1:1
  Colony count: 856 and 1052
EGI-1 cells; EGI-1, Test 2, 2x IC50: dose Olaparib 17.309, Ex 1 0.055, combination both 1:1
  Colony count: 445 and 482
EGI-1 cells; EGI-1, Test 2, 4x IC50: dose Olaparib 34.618, Ex 1 0.11, combination both 1:1
  Colony count: 144 and 198
EGI-1 cells; Homo sapiens, EGI-1 cells, pre-determined by dose-response assay
  IC50: 8.65 µM
HPAF-II cells; Test 1, 0.25x IC50: dose Olaparib 9.7975, Ex 1 0,001929, combination both 1:1
  Colony count: 522 and 507
HPAF-II cells; Test 1, 0.5x IC50: dose Olaparib 19.535, Ex 1 0.003883, combination both 1:1
  Colony count: 498 and 471
HPAF-II cells; Test 1, 1x IC50: dose Olaparib 39.19, Ex 1 0,007577, combination both 1:1
  Colony count: 381 and 427
HPAF-II cells; Test 1, 2x IC50: dose Olaparib 78.38, Ex 1 0.015354, combination both 1:1
  Colony count: 313 and 244
HPAF-II cells; Test 1, 4x IC50: dose Olaparib 156.76, Ex 1 0.030707, combination both 1:1
  Colony count: 237 and 206
HPAF-II cells; Test 2, 0.25x IC50: dose Olaparib 9.7975, Ex 1 0.001929, combination both 1:1
  Colony count: 550 and 426
HPAF-II cells; Test 2, 0.5x IC50: dose Olaparib 13.595, Ex 1 0.003838, combination both 1:1
  Colony count: 443 and 375
HPAF-II cells; Test 2, 1x IC50: dose Olaparib 39.19, Ex 1 0.007677, combination both 1:1
  Colony count: 278 and 248
HPAF-II cells; Test 2, 2x IC50: dose Olaparib 78.38, Ex 1 0.015354, combination both 1:1
  Colony count: 239 and 172
HPAF-II cells; Test 2, 4x IC50: dose Olaparib 156.76, Ex 1 0.030707, combination both 1:1
  Colony count: 142 and 92
MCAS cells; MCAS cells, pre-determined by dose-response assay
  IC50: 3.98 µM
MCAS cells; Test 1, 0.25x IC50: dose Olaparib 0.99475, Ex 1 0.07175, combination both 1:1
  Colony count: 429 and 425
MCAS cells; Test 1, 0.5x IC50: dose Olaparib 1.9895, Ex 1 0.1435, combination both 1:1
  Colony count: 363 and 402
MCAS cells; Test 1, 1x IC50: dose Olaparib 3.979, Ex 1 0.287, combination both 1:1
  Colony count: 273 and 227
MCAS cells; Test 1, 2x IC50: dose Olaparib 7.958, Ex 1 0.574, combination both 1:1
  Colony count: 188 and 141
MCAS cells; Test 1, 4x IC50: dose Olaparib 15.918, Ex 1 1.148, combination both 1:1
  Colony count: 112 and 97
MCAS cells; Test 2, 0.25x IC50: dose Olaparib 0.99475, Ex 1 0.07175, combination both 1:1
  Colony count: 951 and 929
MCAS cells; Test 2, 0.5x IC50: dose Olaparib 1.9895, Ex 1 0.1435, combination both 1:1
  Colony count: 741 and 668
MCAS cells; Test 2, 1x IC50: dose Olaparib 3.979, Ex 1 0.287, combination both 1:1
  Colony count: 393 and 359
MCAS cells; Test 2, 2x IC50: dose Olaparib 7.958, Ex 1 0.574, combination both 1:1
  Colony count: 155
MCAS cells; Test 2, 4x IC50: dose Olaparib 15.916, Ex 1 1.148, combination both 1:1
  Colony count: 85 and 82
TFK-1 cells; TFK-1, Test 1, 0.25x IC50: dose Olaparib 4.5, Ex 1 3, combination both 1:1
  Colony count: 759 and 668
TFK-1 cells; TFK-1, Test 1, 0.5x IC50: dose Olaparib 9, Ex 1 6, combination both 1:1
  Colony count: 674 and 531
TFK-1 cells; TFK-1, Test 1, 1x IC50: dose Olaparib 18, combination both 1:1
  Colony count: 381 and 437
TFK-1 cells; TFK-1, Test 1, 2x IC50: dose Olaparib 36, Ex 1 24, combination both 1:1
  Colony count: 270 and 204
TFK-1 cells; TFK-1, Test 1, 4x IC50: dose Olaparib 72, Ex 1 48, combination both 1:1
  Colony count: 96 and 75
TFK-1 cells; TFK-1, Test 2, 0.25x IC50: dose Olaparib 4.5, Ex 1 3, combination both 1:1
  Colony count: 737 and 676
TFK-1 cells; TFK-1, Test 2, 0.5x IC50: dose Olaparib 9, Ex 1 6, combination both 1:1
  Colony count: 698 and 621
TFK-1 cells; TFK-1, Test 2, 1x IC50: dose Olaparib 18, combination both 1:1
  Colony count: 447 and 437
TFK-1 cells; TFK-1, Test 2, 2x IC50: dose Olaparib 36, Ex 1 24, combination both 1:1
  Colony count: 267 and 213
TFK-1 cells; TFK-1, Test 2, 4x IC50: dose Olaparib 72, Ex 1 48, combination both 1:1
  Colony count: 148 and 75
TFK-1 cells; TFK-1 cells, pre-determined by dose-response assay
  IC50: 18 µM
